Columns and labels:
normal BALB/c mice = assay: Dynamic PET scans of normal BALB/c mice; format: in vivo; conditions: dynamic PET over 30 minutes; for clearance pathway: FIG. 4A; for heart and brain uptake and retention: FIG. 4A-C
Procedure: (§1) Normal BALB/c mice or breast cancer xenografts were used for the PET imaging experiments. Human MDA-MB231 cells (3-5×10^6 cells in 100 μL PBS) were injected subcutaneously into 8-12 weeks old anesthetized female NIH-III nude mice (Charles River, Saint-Constant, QC, Canada). Tumors were grown for 3-4 weeks, reaching sizes of 300-500 mm^3. For fasting experiments, the food was removed from the mice for 24 h prior to the PET experiment.
Mice were anesthetized with isoflurane (40% O2/60% N2) and their body temperature was kept constant at 37° C. They were positioned and immobilized in prone position into the centre of the field of view of an INVEON® PET scanner (Siemens Preclinical Solutions, Knoxville, TN, USA). A transmission scan for attenuation correction was not acquired. Radioactivity present in the injection solution (0.5 mL insulin syringe) was determined using a dose calibrator (Atomlab™ 300, Biodex Medical Systems, New York, NY, USA). After the emission scan was started, radioactivity (4-8 MBq in 100-150 μL saline) was injected with a delay of ˜15 s through a tail vein catheter. […] Dynamic list mode data were sorted into sinograms with 54 time frames (10×2 s, 8×5 s, 6×10 s, 6×20 s, 8×60 s, 10×120 s, 5×300 s). Frames were reconstructed using the maximum a posteriori (MAP) reconstruction mode. No correction for partial volume effects was performed. Image files were further processed using the ROVER v2.0.51 software (ABX GmbH, Radeberg, Germany). Masks defining 3D ROI were set and defined by 50% thresholding. Mean standardized uptake values [SUV=(activity/mL tissue)/(injected activity/body weight) were calculated for each ROI. Time-activity curves (TAC) were generated from the dynamic scans using GraphPad® Prism 5.04 (GraphPad Software, La Jolla, CA, USA).
(§2) All semi-quantified PET data are expressed as means±SEM. Where applicable, statistical differences were tested by unpaired Student's t test and were considered significant for p<0.05 (*), p<0.01 (**) and p<0.001 (***).

[1] = system: subcutaneous MCF-7 breast cancer tumor; assay: Dynamic PET imaging of radiotracer uptake in MCF-7 tumor-bearing mice; format: in vivo
Procedure: (§3) Mice were anesthetized with isoflurane (40% O2/60% N2) and their body temperature was kept constant at 37° C. They were positioned and immobilized in prone position into the centre of the field of view of an INVEON® PET scanner (Siemens Preclinical Solutions, Knoxville, TN, USA). A transmission scan for attenuation correction was not acquired. Radioactivity present in the injection solution (0.5 mL insulin syringe) was determined using a dose calibrator (Atomlab™ 300, Biodex Medical Systems, New York, NY, USA). After the emission scan was started, radioactivity (4-8 MBq in 100-150 μL saline) was injected with a delay of ˜15 s through a tail vein catheter. Dynamic PET data acquisition was performed in 3D list mode for 60 min. Dynamic list mode data were sorted into sinograms with 54 time frames (10×2 s, 8×5 s, 6×10 s, 6×20 s, 8×60 s, 10×120 s, 5×300 s). Frames were reconstructed using the maximum a posteriori (MAP) reconstruction mode. No correction for partial volume effects was performed. Image files were further processed using the ROVER v2.0.51 software (ABX GmbH, Radeberg, Germany). Masks defining 3D ROI were set and defined by 50% thresholding. Mean standardized uptake values [SUV=(activity/mL tissue)/(injected activity/body weight) were calculated for each ROI. Time-activity curves (TAC) were generated from the dynamic scans using GraphPad® Prism 5.04 (GraphPad Software, La Jolla, CA, USA).
as §2

[2] = system: MDA-MB231 breast cancer xenografts; assay: Dynamic PET imaging of radiotracer uptake in MDA-MB231 tumor-bearing mice; format: in vivo, NIH-III nude mice; conditions: for SUV mean, Harderian glands / SUV mean, brain / SUV mean, heart / SUV mean, joint / SUV mean, kidneys / SUV mean, liver / SUV mean, muscle / SUV mean, spine / SUV mean, tumor: 60 min
Procedure: as §1, §3, §2

SMILES | clearance pathway (normal BALB/c mice) | heart and brain uptake and retention (normal BALB/c mice) | SUV mean, Harderian glands ([2]; n=3, 24 h fasted) | SUV mean, brain ([2]; n=3, 24 h fasted) | SUV mean, heart ([2]; n=3, 24 h fasted) | SUV mean, joint ([2]; n=3, 24 h fasted) | SUV mean, kidneys ([2]; n=3, 24 h fasted) | SUV mean, liver ([2]; n=3, 24 h fasted) | SUV mean, muscle ([2]; n=3, 24 h fasted) | SUV mean, spine ([2]; n=3, 24 h fasted) | SUV mean, tumor ([2]; n=3, 24 h fasted) | SUV mean, Harderian glands ([2]; n=3, fed (unfasted)) | SUV mean, brain ([2]; n=3, fed (unfasted)) | SUV mean, heart ([2]; n=3, fed (unfasted)) | SUV mean, joint ([2]; n=3, fed (unfasted)) | SUV mean, kidneys ([2]; n=3, fed (unfasted)) | SUV mean, liver ([2]; n=3, fed (unfasted)) | SUV mean, muscle ([2]; n=3, fed (unfasted)) | SUV mean, spine ([2]; n=3, fed (unfasted)) | SUV mean, tumor ([2]; n=3, fed (unfasted)) | also measured
O=C(O)C[C@@H](O)C[18F] [(R)[^18F]FBHB, (R)-[^18F]γ-fluoro-β-hydroxybutyric acid] | renal clearance pathway | moderate heart and brain uptake and retention | 1.39 ± 0.11 ^n.s. | 1.02 ± 0.05 ^n.s. | 0.95 ± 0.03 ^n.s. | 1.58 ± 0.02 ^p=0.0501 | 2.36 ± 0.25 ^n.s. | 0.74 ± 0.02 ^n.s. | 0.54 ± 0.02 | 1.56 ± 0.03 * | 0.89 ± 0.05 * | 1.56 ± 0.13 | 0.91 ± 0.07 | 0.84 ± 0.09 | 1.30 ± 0.10 | 1.96 ± 0.17 | 0.66 ± 0.08 | 0.50 ± 0.05 | 1.39 ± 0.03 | 0.77 ± 0.06 | brain uptake after 24 hour fast versus fed (SUV ratio versus time) ([1]; MCF7 tumor-bearing mice, FIG. 6A): increased; heart uptake after 24 hour fast versus fed (SUV ratio versus time) ([1]; MCF7 tumor-bearing mice, FIG. 6B): increased; tumor retention after 24 hour fast versus fed (SUV ratio versus time) ([1]; MCF7 tumor-bearing mice, FIG. 6C): better tumor retention; retention in tumor tissue compared to muscle tissue ([1]; subcutaneous MCF-7 tumor, FIG. 3A-B): higher retention in tumor tissue as compared to muscle tissue; MDA-MB-231 tumor and muscle uptake, 24 hour fast versus fed state (time activity curves) ([2]; FIGS. 9B-C): statistically significant increase in uptake; tumor retention in mice fed a glucose-free, fructose-based diet (SUV ratio versus time) ([2]; MDA-MB231 tumors, FIG. 7): higher; retention in tumor tissue compared to muscle tissue ([2]; subcutaneous MDA-MB231 tumor, FIG. 3A, 3C): higher retention in tumor tissue as compared to muscle tissue
O=C(O)C[C@H](O)C[18F] [(S)[^18F]FBHB, (S)-[^18F]γ-fluoro-β-hydroxybutyric acid] | renal clearance pathway | moderate heart and brain uptake and retention | 1.15 ± 0.02 | 1.17 ± 0.02 * | 1.05 ± 0.02 * | 1.07 ± 0.08 | 1.38 ± 0.16 | 0.80 ± 0.02 * | 0.60 ± 0.03 | 1.13 ± 0.04 | 0.95 ± 0.04 | 1.10 ± 0.01 | 1.08 ± 0.02 | 0.96 ± 0.01 | 1.10 ± 0.08 | 1.44 ± 0.05 | 0.74 ± 0.01 | 0.57 ± 0.01 | 1.10 ± 0.07 | 0.91 ± 0.02 | brain retention, comparison of isomers (normal BALB/c mice; FIG. 4A lower panel): brain retention highest for the S isomer; visibility of xenograft tumors by PET imaging ([2]; intravenous administration, preliminary studies, FIGS. 8A-B and 9A-C): xenograft tumors were visible by PET imaging; tumor uptake compared with muscle uptake, comparison of isomers ([2]; subcutaneous MDA-MB-231 xenograft, FIG. 8B): higher uptake

From US11833228B2, “Fluorinated beta-hydroxybutyric acids for PET imaging” (The Governors of the University of Alberta, priority 2019, dated 2023)
